Measured values published in patent publication US5439816A, “Carboxymethylcellulase isolated from bacillus sp. PKM-5430 (FERM BP-4087)” (Kao Corporation, priority 1991, dated 1995).

How the values were obtained:
[1] = test system: Carboxymethylcellulase 5430; assay: Substrate specificity of Carboxymethylcellulase 5430 (hydrolytic activities, DNS method / p-nitrophenol release); type: biochemical, Bacillus sp. PKM-5430
Method: (§1) Activities were determined by the DNS method (J. R. Summer and G. F. Somers, Laboratory Experiments in Biological Chemistry, Academic Press, New York, U.S.A., 1944). Namely, 0.1 ml of a suitably diluted enzyme solution was added to 0.9 ml of a 1.1% (w/v) solution of a CMC (A01MC) substrate in 0.1M glycine-NaOH buffer (pH: 9.0). After a 20-minute reaction at 40° C., 1 ml of 0.05% (w/v) 3,5-dinitrosalicylic acid solution (product of Wako Pure Chemical Industries, Ltd.) was added, and the resulting mixture was immediately placed in a boiling water bath for 5 minutes, followed by cooling in an iced water bath. Then, 4 ml of deionized water was added further, afterwhich, colorimetry was conducted by measuring an absorbance at 535 nm. With respect to enzymatic activity, the amount of enzyme, which liberates reducing sugars corresponding to 1 μmole of glucose for 1 minute, was defined as 1 unit.
(§2) Sodium hydroxide- and phosphoric acid-swollen celluloses were prepared according to the method of Tomita et al. [Y. Tomita, H. Suzuki and K. Nisizawa, J. Biochem., 78, 499(1975)]. The reducing sugar liberated was determined in a similar manner to that of the method (a) except that substrate solutions containing cellulose substrates were used, and the reaction was conducted at 30° C.
(§3) The reducing sugar liberated was determined in a similar manner to that of the method (a) except that substrate solutions containing polysaccharides were used, and the reaction was conducted at 30° C.
(§4) A suitably diluted enzyme solution was added to a solution of 8 mM of a PNPG or PNPC substrate in 0.1M phosphate buffer of pH 7.0 to react them for 20 minutes at 30° C. The p-nitrophenol liberated was determined at 400 nm and the amount formed was calculated.
(§5) The enzyme is also active toward cellobiose, PNPG, PNPC, cellulose powder and phosphoric acid-swollen cellulose.

[2] = test system: Carboxymethylcellulase 5812; assay: Substrate specificity of Carboxymethylcellulase 5812 (hydrolytic activities, DNS method / p-nitrophenol release); type: biochemical, Bacillus sp. PKM-5812
Method: as §1, §2, §3, §4, §5

[3] = substrate 8 mM, 0.1M phosphate buffer pH 7.0, 30° C., activity toward CMC taken as 100%

O=[N+]([O-])c1ccc(O[C@@H]2O[C@H](CO)[C@@H](O[C@@H]3O[C@H](CO)[C@@H](O)[C@H](O)[C@H]3O)[C@H](O)[C@H]2O)cc1 [PNPC, p-nitrophenyl-β-D-cellobioside]
activity of the enzyme toward substrate [1]: active | Relative activity (%) [1, 3]: 1.0% | activity of the enzyme toward substrate [2]: active | Relative activity (%) [2, 3]: 0.6%
